Measured values published in ChEMBL document CHEMBL3745637, “New hybrid molecules with anticonvulsant and antinociceptive activity derived from 3-methyl- or 3,3-dimethyl-1-[1-oxo-1-(4-phenylpiperazin-1-yl)propan-2-yl]pyrrolidine-2,5-diones” (Bioorg Med Chem, 2016).
Active and inactive are the calls of the source. The rule behind the calls is not given here.

Assays:
[1] = system: Mus musculus; assay: Anticonvulsant activity in ip dosed Swiss mouse assessed as reduction in clonic seizures at 1 hr by subcutaneous pentylenetetrazole seizure test; format: functional
[2] = Neurotoxicity in ip dosed Swiss mouse seizure model assessed as motor impairment pretreated for 1 hr measured within 60 s by chimney test; format: toxicity, organism-based; settings: in vivo
[3] = system: Mus musculus; assay: Anticonvulsant activity in ip dosed Swiss mouse assessed as protection against maximal electroshock-induced seizures at 1 hr; format: functional
[4] = Protective index, ratio of TD50 for neurotoxicity in ip dosed Swiss mouse to ED50 for anticonvulsant activity in ip dosed Swiss mouse 6 Hz psychomotor seizure model at 1 hr; format: toxicity, organism-based; settings: in vivo, read-out: Ratio TD50/ED50
[5] = system: Mus musculus; assay: Anticonvulsant activity in Swiss mouse assessed as protection against maximal electroshock-induced seizures at 300 mg/kg, ip pretreated for 2 hrs; format: functional, organism-based
[6] = system: Mus musculus; assay: Anticonvulsant activity in ip dosed Swiss mouse assessed as protection against maximal electroshock-induced seizures at 0.25 hrs; format: functional
[7] = system: Mus musculus; assay: Anticonvulsant activity in Swiss mouse assessed as reduction in clonic seizures at 100 mg/kg, ip pretreated for 0.25 hrs measured after 30 mins by subcutaneous pentylenetetrazole seizure test; format: functional, organism-based
[8] = system: Mus musculus; assay: Anticonvulsant activity in Swiss mouse assessed as protection against maximal electroshock-induced seizures at 100 mg/kg, ip pretreated for 0.25 hrs; format: functional, organism-based
[9] = system: Mus musculus; assay: Antinociceptive activity in ip dosed Swiss mouse assessed as reduction of formalin-induced licking at MES ED50 pretreated for 0.25 hrs measured during 20 to 25 mins; format: functional; set-up: scale not given: the % may be the effect or the level left
[10] = system: Mus musculus; assay: Anticonvulsant activity in Swiss mouse assessed as protection against maximal electroshock-induced seizures at 100 mg/kg, ip pretreated for 2 hrs; format: functional, organism-based
[11] = system: Mus musculus; assay: Antinociceptive activity in ip dosed Swiss mouse assessed as reduction of formalin-induced licking at MES ED50 pretreated for 0.25 hrs measured during 25 to 30 mins; format: functional; set-up: scale not given: the % may be the effect or the level left
[12] = system: Mus musculus; assay: Anticonvulsant activity in Swiss mouse assessed as reduction in clonic seizures at 100 mg/kg, ip pretreated for 2 hrs measured after 30 mins by subcutaneous pentylenetetrazole seizure test; format: functional, organism-based
[13] = system: Mus musculus; assay: Anticonvulsant activity in Swiss mouse assessed as protection against maximal electroshock-induced seizures at 300 mg/kg, ip pretreated for 0.25 hrs; format: functional, organism-based
[14] = system: Mus musculus; assay: Antinociceptive activity in ip dosed Swiss mouse assessed as reduction of formalin-induced licking at MES ED50 pretreated for 0.25 hrs measured during 15 to 30 mins; format: functional, organism-based
[15] = system: Mus musculus; assay: Anticonvulsant activity against ip dosed Swiss mouse seizure model assessed as protection at 0.25 hrs by 6 Hz psychomotor seizure test; format: functional
[16] = system: Mus musculus; assay: Antinociceptive activity in ip dosed Swiss mouse assessed as reduction of formalin-induced licking at MES ED50 pretreated for 0.25 hrs measured during 15 to 20 mins; format: functional; set-up: scale not given: the % may be the effect or the level left
[17] = Protective index, ratio of TD50 for neurotoxicity in ip dosed Swiss mouse to ED50 for anticonvulsant activity in ip dosed Swiss mouse 6 Hz psychomotor seizure model at 0.25 hrs; format: toxicity, organism-based; settings: in vivo, read-out: Ratio TD50/ED50
[18] = system: Mus musculus; assay: Anticonvulsant activity in Swiss mouse assessed as protection against maximal electroshock-induced seizures at 300 mg/kg, ip pretreated for 0.5 hrs; format: functional, organism-based
[19] = Neurotoxicity in ip dosed Swiss mouse seizure model assessed as motor impairment pretreated for 0.25 hrs measured within 60 s by chimney test; format: toxicity, organism-based; settings: in vivo
[20] = system: Mus musculus; assay: Anticonvulsant activity in Swiss mouse assessed as protection against maximal electroshock-induced seizures at 300 mg/kg, ip pretreated for 1 hr; format: functional, organism-based
[21] = Protective index, ratio of TD50 for neurotoxicity in ip dosed Swiss mouse to ED50 for anticonvulsant activity in ip dosed MES Swiss mouse model at 0.25 hrs; format: toxicity, organism-based; settings: in vivo, read-out: Ratio TD50/ED50
[22] = system: Mus musculus; assay: Antinociceptive activity in ip dosed Swiss mouse assessed as reduction of formalin-induced licking at MES ED50 pretreated for 0.25 hrs measured during 1 to 5 mins; format: functional; set-up: scale not given: the % may be the effect or the level left
[23] = Protective index, ratio of TD50 for neurotoxicity in ip dosed Swiss mouse to ED50 for anticonvulsant activity in ip dosed scPTZ Swiss mouse model at 0.25 hrs; format: toxicity, organism-based; settings: in vivo, read-out: Ratio TD50/ED50
[24] = system: Mus musculus; assay: Anticonvulsant activity in Swiss mouse assessed as prolong latency to first seizure episode at 120 mg/kg pretreated for 0.25 hrs measured after 30 mins by subcutaneous pentylenetetrazole seizure test; format: functional, organism-based
[25] = species on record: Rattus norvegicus; assay: Displacement of [3H]nitrendipine from calcium channel L-Type dihydropyridine site in rat cerebral cortex at 500 uM after 120 mins by scintillation counting method; format: tissue-based
[26] = target: T1, Glutamate NMDA receptor (Rattus norvegicus) (UniProt P35439+Q00959+Q00960+Q00961+Q62645+Q8VHN2+Q9R1M7); assay: Displacement of [3H]CGP-39653 from NMDA receptor in rat cerebral cortex at 100 uM after 60 mins by scintillation counting method; format: tissue-based
[27] = species on record: Rattus norvegicus; assay: Displacement of [3H]Batrachotoxinin from sodium channel site 2 in rat cerebral cortex at 100 uM after 60 mins by scintillation counting method; format: tissue-based
[28] = system: Mus musculus; assay: Anticonvulsant activity in ip dosed Swiss mouse assessed as protection against maximal electroshock-induced seizures at 0.5 hrs; format: functional
[29] = Protective index, ratio of TD50 for neurotoxicity in ip dosed Swiss mouse to ED50 for anticonvulsant activity in ip dosed Swiss mouse 6 Hz psychomotor seizure model at 0.5 hrs; format: toxicity, organism-based; settings: in vivo, read-out: Ratio TD50/ED50
[30] = system: Mus musculus; assay: Anticonvulsant activity in ip dosed Swiss mouse assessed as reduction in clonic seizures at 0.5 hrs by subcutaneous pentylenetetrazole seizure test; format: functional
[31] = Neurotoxicity in ip dosed Swiss mouse seizure model assessed as motor impairment pretreated for 0.5 hrs measured within 60 s by chimney test; format: toxicity, organism-based; settings: in vivo
[32] = system: Mus musculus; assay: Anticonvulsant activity against ip dosed Swiss mouse seizure model assessed as protection at 0.5 hrs by 6 Hz psychomotor seizure test; format: functional
[33] = species on record: Rattus norvegicus; assay: Displacement of [3H]Batrachotoxinin from sodium channel site 2 in rat cerebral cortex at 500 uM after 60 mins by scintillation counting method; format: tissue-based
[34] = species on record: Rattus norvegicus; assay: Displacement of [3H]nitrendipine from calcium channel L-Type dihydropyridine site in rat cerebral cortex at 100 uM after 120 mins by scintillation counting method; format: tissue-based
[35] = system: Mus musculus; assay: Anticonvulsant activity in ip dosed Swiss mouse assessed as prolong latency to first seizure episode pretreated for 0.5 hrs measured after 30 mins by subcutaneous pentylenetetrazole seizure test; format: functional, organism-based
[36] = system: Mus musculus; assay: Potency index, ratio of ethosuximide ED50 to compound ED50 for anticonvulsant activity in ip dosed scPTZ Swiss mouse model at 0.25 hrs; format: functional
[37] = system: Mus musculus; assay: Anticonvulsant activity against Swiss mouse seizure model assessed as protection at 100 mg/kg, ip pretreated for 0.5 hrs by 6 Hz psychomotor seizure test; format: functional, organism-based
[38] = Protective index, ratio of TD50 for neurotoxicity in ip dosed Swiss mouse to ED50 for anticonvulsant activity in ip dosed scPTZ Swiss mouse model at 0.5 hrs; format: toxicity, organism-based; settings: in vivo, read-out: Ratio TD50/ED50
[39] = system: Mus musculus; assay: Antinociceptive activity in ip dosed Swiss mouse assessed as reduction of formalin-induced licking at MES ED50 pretreated for 0.5 hrs measured during 15 to 20 mins; format: functional; set-up: scale not given: the % may be the effect or the level left
[40] = system: Mus musculus; assay: Antinociceptive activity in ip dosed Swiss mouse assessed as reduction of formalin-induced licking at MES ED50 pretreated for 0.5 hrs measured during 1 to 5 mins; format: functional, organism-based
[41] = Protective index, ratio of TD50 for neurotoxicity in ip dosed Swiss mouse to ED50 for anticonvulsant activity in ip dosed MES Swiss mouse model at 0.5 hrs; format: toxicity, organism-based; settings: in vivo, read-out: Ratio TD50/ED50
[42] = system: Mus musculus; assay: Anticonvulsant activity in ip dosed Swiss mouse assessed as reduction in clonic seizures at 0.25 hrs by subcutaneous pentylenetetrazole seizure test; format: functional
[43] = system: Mus musculus; assay: Anticonvulsant activity against Swiss mouse seizure model assessed as protection at 100 mg/kg, ip pretreated for 0.25 hrs by 6 Hz psychomotor seizure test; format: functional, organism-based
[44] = target: T1, Glutamate NMDA receptor (Rattus norvegicus); assay: Displacement of [3H]CGP-39653 from NMDA receptor in rat cerebral cortex at 500 uM after 60 mins by scintillation counting method; format: tissue-based
[45] = system: Mus musculus; assay: Anticonvulsant activity in Swiss mouse assessed as prolong latency to first seizure episode at 60 mg/kg pretreated for 0.5 hrs measured after 30 mins by subcutaneous pentylenetetrazole seizure test; format: functional, organism-based

Q: Which results are given for `CC[C@@H](C(N)=O)N1CCCC1=O` [LEVETIRACETAM]?
A: ED50 [1]: > 500 mg/kg; TD50 at 1 h [2]: > 500 mg/kg; ED50 [3]: > 500 mg/kg; selectivity ratio at 1 h [4]: > 33.8

Q: Which Activity [5] does the source give for `CC(C(=O)N1CCN(c2cccc(C(F)(F)F)c2)CC1)N1C(=O)CC(C)(C)C1=O` (stereo unspecified) here?
A: Its Activity is “Active”.

Q: What about the ED50 [6] of the same compound?
A: Its ED50 is 114 mg/kg.

Q: And the Activity [7]?
A: The Activity was “inactive”.

Q: What about the Activity [8] of the same compound?
A: The Activity was “Active”.

Q: And the Activity [9]?
A: The Activity was 93%.

Q: And the Activity [10]?
A: Its Activity is “inactive”.

Q: And the Activity [11]?
A: The Activity was 98%.

Q: And the Activity [12]?
A: Its Activity is “inactive”.

Q: What about the Activity [13] of the same compound?
A: Its Activity is “Active”.

Q: And the Activity [14]?
A: Its Activity is “Active”.

Q: What about the ED50 [15] of the same compound?
A: The ED50 was 29 mg/kg.

Q: What about the Activity [16] of the same compound?
A: Its Activity is 96%.

Q: And the selectivity ratio at 0.25 h [17]?
A: The selectivity ratio at 0.25 h was 14.7.

Q: What about the Activity [18] of the same compound?
A: The Activity was “Active”.

Q: What about the TD50 at 0.25 h [19] of the same compound?
A: The TD50 at 0.25 h was 425 mg/kg.

Q: What about the Activity [20] of the same compound?
A: Its Activity is “Active”.

Q: What about the selectivity ratio at 0.25 h [21] of the same compound?
A: Its selectivity ratio at 0.25 h is 3.73.

Q: What about the Activity [22] of the same compound?
A: The Activity was 56%.

Q: Which ED50 [6] does the source give for `CCC1(C)CC(=O)NC1=O` (stereo unspecified) [ETHOSUXIMIDE] here?
A: Its ED50 is over 500 mg/kg.

Q: What about the ED50 [15] of the same compound?
A: The ED50 was over 200 mg/kg.

Q: And the selectivity ratio at 0.25 h [23]?
A: Its selectivity ratio at 0.25 h is 4.89.

Q: And the Activity [24]?
A: The Activity was “Active”.

Q: What does the source list for `CC1CC(=O)N(C(C)C(=O)N2CCN(c3cccc(C(F)(F)F)c3)CC2)C1=O` (stereo unspecified)?
A: Activity [5]: Active; ED50 [6]: 81.7 mg/kg; inhibition [25]: 78.5%; Activity [26]: inactive; inhibition [27]: 29.9%; Activity [10]: inactive; ED50 [28]: 74.8 mg/kg; selectivity ratio at 0.5 h [29]: 12.7; ED50 [30]: 51.6 mg/kg; TD50 at 0.5 h [31]: 213 mg/kg; ED50 [32]: 16.8 mg/kg; inhibition [33]: 76.3%; inhibition [34]: 38.1%; Activity [35]: Dose-dependent effect; Ratio ED50 [36]: 2.2; ED50 [15]: 24.6 mg/kg; Activity [37]: Active; selectivity ratio at 0.5 h [38]: 4.13; Activity [39]: 84%; Activity [40]: inactive; selectivity ratio at 0.25 h [17]: 11.6; selectivity ratio at 0.5 h [41]: 2.85; Activity [18]: Active; ED50 [42]: 65.7 mg/kg; selectivity ratio at 0.25 h [23]: 4.33; TD50 at 0.25 h [19]: 285 mg/kg; selectivity ratio at 0.25 h [21]: 3.49; Activity [43]: Active; Activity [44]: inactive; Activity [45]: Active
